Laboratory results: PubChem BioAssay (NCI)
Several values for one entry are separate records, joined by “and”; a condition that tells them apart may be missing. Equal values may be shown once.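 Briefly, cells in 96-well plates were exposed to five compound concentrations for 48 h, and endpoints were estimated by linear interpolation. GI50: concentration for 50% inhibition of growth. TGI denotes the concentration required for complete inhibition of growth.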

Tests used:
Test in all cases: DTP human tumour cell line panel, 48 h
[1] = system: SK-OV-3 ovarian
[2] = system: SNB-19 CNS
[3] = system: HOP-92 NSCLC
[4] = system: NCI-H23 lung
[5] = system: DU-145 prostate
[6] = system: HCC-2998 colon
[7] = system: SK-MEL-2 melanoma
[8] = system: OVCAR-4 ovarian
[9] = system: MDA-MB-231 breast
[10] = system: TK-10 renal
[11] = system: U251 CNS
[12] = system: SN12C renal
[13] = system: ACHN renal
[14] = system: A498 renal
[15] = system: HCT-15 colon
[16] = system: A549 NSCLC
[17] = system: HOP-62 NSCLC
[18] = system: RXF 393 renal
[19] = system: PC-3 prostate
[20] = system: MOLT-4 leukemia
[21] = system: UACC-62 melanoma
[22] = system: UO-31 renal
[23] = system: 786-0 renal
[24] = system: SF-539 CNS
[25] = system: BT-549 breast
[26] = system: SR leukemia
[27] = system: K-562 leukemia
[28] = system: NCI-H460 lung
[29] = system: UACC-257 melanoma
[30] = system: MCF7 breast
[31] = system: LOX IMVI melanoma
[32] = system: EKVX NSCLC
[33] = system: OVCAR-3 ovarian
[34] = system: SW-620 colon
[35] = system: MALME-3M melanoma
[36] = system: SNB-75 CNS
[37] = system: SF-268 CNS
[38] = system: SK-MEL-5 melanoma
[39] = system: OVCAR-5 ovarian
[40] = system: IGROV1 ovarian
[41] = system: SK-MEL-28 melanoma
[42] = system: HCT-116 colon
[43] = system: NCI-H226 lung
[44] = system: RPMI-8226 leukemia
[45] = system: NCI/ADR-RES ovarian
[46] = system: T-47D breast
[47] = system: KM12 colon
[48] = system: HT29 colon
[49] = system: OVCAR-8 ovarian
[50] = system: CAKI-1 renal
[51] = system: COLO 205 colon
[52] = system: M14 melanoma
[53] = system: MDA-MB-435
[54] = system: SF-295 CNS
[55] = system: HS 578T breast
[56] = system: CCRF-CEM leukemia

With CC(C)C[C@H](NC(=O)[C@H](Cc1cccc2ccccc12)NC(=O)N1CCOCC1)B(O)O the GI50 [1] was 0.226 µM, the TGI [1] was over 100 µM and the TGI [2] was over 100 µM. The GI50 [3] was 0.000654 µM, the TGI [3] was 0.00322 µM and < 0.0122 µM and the GI50 [4] was 0.00188 µM. The TGI [4] was 0.0076 µM, the TGI [5] was 0.116 µM and < 0.0249 µM and the GI50 [6] was 0.00158 µM. For the same molecule, the TGI [6] was 0.00302 µM, the GI50 [7] was 0.00068 µM and the TGI [7] was 0.00251 µM and < 0.0159 µM. The TGI [8] was over 100 µM, the GI50 [9] was 0.00188 µM and the TGI [9] was 0.00398 µM. The GI50 [10] was 0.00281 µM, the TGI [10] was 0.0226 µM and the GI50 [11] was 0.00196 µM. For the same molecule, the TGI [11] was 0.0245 µM and 0.0429 µM, the GI50 [12] was 0.0029 µM and the TGI [12] was 0.0115 µM and < 0.0266 µM. For the same molecule, the TGI [13] was over 100 µM, the GI50 [14] was 0.000871 µM and the TGI [14] was 0.0288 µM and < 0.0143 µM. The GI50 [15] was 0.0363 µM, the TGI [15] was 0.303 µM and 1.76 µM and the GI50 [16] was 0.00609 µM. For the same molecule, the TGI [16] was 0.267 µM, the GI50 [17] was 0.00383 µM and the TGI [17] was 0.0137 µM and < 0.018 µM. For the same molecule, the TGI [18] was 0.00195 µM, the GI50 [19] was 0.00473 µM and the TGI [19] was 0.0191 µM and < 0.0235 µM. It also gave a GI50 [20] of 0.000339 µM, a GI50 [21] of 0.00129 µM and a TGI [21] of 0.00338 µM. For the same molecule, the TGI [22] was 0.159 µM and 0.211 µM, the TGI [23] was 0.199 µM and 1.09 µM and the GI50 [24] was 0.000154 µM. It also gave a TGI [24] of 0.00032 µM, a GI50 [25] of 0.00039 µM and a GI50 [26] of 0.00276 µM. The TGI [26] was 0.013 µM, the GI50 [27] was 0.00347 µM and the GI50 [28] was 0.0151 µM. The TGI [28] was 0.0542 µM and 0.0423 µM, the GI50 [29] was 0.00172 µM and the TGI [29] was 0.00495 µM. The GI50 [30] was 0.000351 µM, the TGI [30] was 0.139 µM and the GI50 [31] was 0.00114 µM. It also gave a TGI [31] of 0.00304 µM, a GI50 [32] of 0.00928 µM and a TGI [32] of 0.159 µM. For the same molecule, the GI50 [33] was 0.000519 µM, the TGI [33] was 0.00171 µM and the TGI [34] was 0.00286 µM and 0.0115 µM. The GI50 [35] was 0.000373 µM, the TGI [35] was 0.00306 µM and < 0.0169 µM and the GI50 [36] was 0.000622 µM. For the same molecule, the TGI [36] was 0.00348 µM, the GI50 [37] was 0.000925 µM and the TGI [37] was 0.00328 µM. For the same molecule, the TGI [38] was 0.00237 µM, the GI50 [39] was 0.00186 µM and the TGI [39] was 0.00534 µM and < 0.0405 µM. It also gave a GI50 [40] of 0.00408 µM, a TGI [40] of 0.0485 µM and a GI50 [41] of 0.000205 µM. The TGI [41] was 0.00096 µM and < 0.0329 µM, the GI50 [42] was 0.000452 µM and the TGI [42] was 0.00182 µM. The TGI [43] was 0.00049 µM, the GI50 [44] was 0.000359 µM and the TGI [44] was 0.00618 µM. The GI50 [45] was 0.267 µM, the GI50 [46] was 0.000817 µM and the TGI [46] was 0.00275 µM. For the same molecule, the GI50 [47] was 0.00149 µM, the TGI [47] was 0.00376 µM and the GI50 [48] was 0.00131 µM. It also gave a TGI [48] of 0.00448 µM, a GI50 [49] of 0.0113 µM and a TGI [49] of 0.0626 µM. For the same molecule, the GI50 [50] was 0.00283 µM, the TGI [50] was 0.0147 µM and 0.0371 µM and the GI50 [51] was 0.00482 µM and 0.015 µM. The GI50 [52] was 0.000443 µM, the TGI [52] was 0.00154 µM and < 0.0125 µM and the GI50 [53] was 0.000136 µM. For the same molecule, the TGI [53] was 0.000308 µM.

For C=C1C(=O)O[C@H]2[C@H]1CC/C(Cn1cc(CNC(=O)Cc3cn(C(=O)c4ccc(Cl)cc4)c4ccc(OC)cc34)nn1)=C\CC[C@@]1(C)O[C@@H]21, the GI50 [1] was 16.1 µM, the TGI [1] was 32.9 µM and the GI50 [2] was 2.14 µM. The TGI [2] was 4.77 µM, the GI50 [3] was 1.21 µM and the TGI [3] was 2.65 µM. The GI50 [4] was 2.58 µM, the TGI [4] was 6.7 µM and the GI50 [54] was 5.78 µM. For the same molecule, the TGI [54] was 25.7 µM, the GI50 [5] was 1.75 µM and the TGI [5] was 3.35 µM. For the same molecule, the GI50 [7] was 2.01 µM, the TGI [7] was 4.18 µM and the GI50 [8] was 1.44 µM. The TGI [8] was 3.02 µM, the GI50 [9] was 1.58 µM and the TGI [9] was 3.12 µM. It also gave a GI50 [10] of 1.77 µM, a TGI [10] of 3.24 µM and a GI50 [11] of 1.89 µM. The TGI [11] was 3.55 µM, the GI50 [12] was 1.62 µM and the TGI [12] was 3.21 µM. The GI50 [13] was 1.92 µM, the TGI [13] was 3.71 µM and the GI50 [14] was 2.51 µM. The TGI [14] was 8.24 µM, the GI50 [15] was 2.77 µM and the TGI [15] was 10.7 µM. It also gave a GI50 [16] of 12.7 µM, a TGI [16] of 29.6 µM and a GI50 [17] of 3.91 µM. For the same molecule, the TGI [17] was 15.1 µM, the GI50 [18] was 1.25 µM and the TGI [18] was 2.59 µM. For the same molecule, the GI50 [19] was 1.89 µM, the TGI [19] was 3.71 µM and the GI50 [20] was 2 µM. It also gave a TGI [20] of 6.16 µM, a GI50 [21] of 1.63 µM and a TGI [21] of 3.18 µM. It also gave a GI50 [55] of 2.61 µM, a TGI [55] of 6.78 µM and a GI50 [22] of 1.53 µM. It also gave a TGI [22] of 3.05 µM, a GI50 [23] of 1.59 µM and a TGI [23] of 3.02 µM. The GI50 [24] was 1.57 µM, the TGI [24] was 2.96 µM and the GI50 [25] was 1.61 µM. For the same molecule, the TGI [25] was 3.41 µM, the GI50 [28] was 3.86 µM and the TGI [28] was 13.2 µM. The GI50 [29] was 1.75 µM, the TGI [29] was 3.39 µM and the GI50 [32] was 2.29 µM. The TGI [32] was 7.33 µM, the GI50 [33] was 1.61 µM and the TGI [33] was 3.19 µM. For the same molecule, the GI50 [34] was 0.932 µM, the TGI [34] was 2.65 µM and the GI50 [35] was 1.62 µM. For the same molecule, the TGI [35] was 3.18 µM, the GI50 [36] was 1.54 µM and the TGI [36] was 4.02 µM. For the same molecule, the GI50 [37] was 1.7 µM, the TGI [37] was 3.52 µM and the GI50 [38] was 1.77 µM. It also gave a TGI [38] of 3.28 µM, a GI50 [56] of 0.384 µM and a TGI [56] of 2.4 µM. The GI50 [39] was 1.66 µM, the TGI [39] was 3.34 µM and the GI50 [40] was 1.71 µM. For the same molecule, the TGI [40] was 3.32 µM, the GI50 [41] was 1.62 µM and the TGI [41] was 3.07 µM. The GI50 [42] was 1.19 µM, the TGI [42] was 2.55 µM and the GI50 [43] was 1.76 µM. The TGI [43] was 3.41 µM, the GI50 [44] was 1.59 µM and the TGI [44] was 5.21 µM. It also gave a GI50 [45] of 46.3 µM, a TGI [45] of over 100 µM and a GI50 [46] of 1.73 µM. The TGI [46] was 5.05 µM, the GI50 [47] was 2.78 µM and the TGI [47] was 7.23 µM. The GI50 [48] was 1.67 µM, the TGI [48] was 3.5 µM and the GI50 [49] was 2.62 µM. For the same molecule, the TGI [49] was 8.3 µM, the GI50 [50] was 1.49 µM and the TGI [50] was 2.89 µM. For the same molecule, the GI50 [51] was 2.04 µM, the TGI [51] was 4.22 µM and the GI50 [52] was 1.65 µM. The TGI [52] was 3.28 µM, the GI50 [53] was 1.71 µM and the TGI [53] was 3.45 µM.
